Measured values published in patent publication US5374772A, “Substituted benzoic acids, inhibitors of phospholipases A2” (Hoffmann-LaRoche Inc., priority 1993, dated 1994).
Counter-ions that a name gives are not always drawn.

Key:
[1] = molecular target: T1, HSF-PLA2 (extracellular PLA2 obtained from human synovial fluid) (Homo sapiens, UniProt P14555); assay: Assay for Inhibition of HSF-PLA2 In Vitro; format: biochemical; settings: for inhibition at 10 µM: read-out: % Inhib of HSF-PLA2
T1 construct: extracellular enzyme obtained from human synovial fluid; from tissue; host or cells: pooled human synovial fluid (0.1% v/v in the assay)
T1 sequence (P14555 21-144): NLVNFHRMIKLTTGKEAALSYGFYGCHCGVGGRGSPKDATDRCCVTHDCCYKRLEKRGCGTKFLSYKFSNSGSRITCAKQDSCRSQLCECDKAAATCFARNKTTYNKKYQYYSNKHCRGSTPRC
Experimental: The PLA2 used in this test is the extracellular enzyme obtained from human synovial fluid (HSF-PLA2). The assay for HSF-PLA2 activity was a modification of the described method [Franson R., Dobrow R., Weiss, J., Elsbach P., and […]. Lipid Res., 19, 18-23 (1978)] which was conducted using [1-^14 C]-oleate-labelled E. coli substrate in excess at a final concentration of 20,000 dpm/ml. This was equivalent to 18.2 mM of cell membrane phospholipid phosphorus and 2×10^9 autoclaved E. coli/ml. The optimal conditions which were developed for the assay of HSF-PLA2 inhibitors are summarized as follows. […] The reaction was terminated by the addition of 2.5 ml of chloroform-methanol (1 to 1.5, v/v). The extraction of lipids from the stopped reaction mixture was conducted by the further additions of 0.5 ml of chloroform and 1 ml of water with mixing. […] The extracted lipid residue was redissolved in […] of a solution containing carrier oleic acid (0.2 mg/ml) of […]]). […] This TLC system rapidly (6 minutes) resolved the enzymatically released product, ^14 C-oleic acid, from the unreacted ^14 C-phospholipid substrate. The unsaturated lipids were located on the chromatogram by a brief exposure to iodine vapor. The oleic acid zone (Rf value 0.95) and phospholipid zone (origin) were cut out, chopped into small pieces, shaken with 2 ml of ethanol-water (80 to 20, v/v) and 15 ml of Aquasol and counted for radioactivity. A control incubation of substrate in the absence of HSF-PLA2 was performed in each experiment. The PLA2 activity of the human synovial fluid was corrected for this small control value. […] The specific activity of PLA2 in the pooled human synovial fluid under the optimal assay conditions was 49.2 nmoles [1-^14 C]-oleic acid released hour^-1 mg^-1. The IC50 (μM concentration of test compound that produces 50% inhibition of PLA2 activity) was determined for each test compound.

[2] = tested on: TPA-induced mouse ear edema; assay: TPA Induced Mouse Ear Edema Test (ear punch weight); format: in vivo, male CD-1 mice; settings: 30 minutes prior to TPA, ear punch weight at 6 hours; for inhibition in vivo at 1 mg / inhibition in vivo at 0.3 mg: Mus musculus; for inhibition in vivo at 1 mg: 1 mg topical, read-out: % Inhib of TPA Mouse Ear Edema (1 mg); for inhibition in vivo at 0.3 mg: 0.3 mg topical, read-out: % Inhib of TPA Mouse Ear Edema (0.3 mg)
Experimental: The TPA-induced mouse ear edema test, a model of irritant-induced contact dermatitis is described in the following reference: J. M. Young, B. M. Wagner and […]. Invest. Dermatology 80, 48-52 (1983). For this test, 10 μl of 12-O-tetradecanoylphorbol-13-acetate (TPA), dissolved in a vehicle of pyridine: water: diethyl ether (20:5:75), was applied to the outside of the right ear of 3-4 week old male CD-1 mice (8 animals per group). The test compounds were dissolved in the same vehicle and 10 μl was applied to the inside of the same ear 30 minutes prior to the application of TPA. Ear punches (6 mm) were removed at 6 hours after TPA application, weighed and assayed for myeloperoxidase (MPO) activity as described in the following reference: P. P. Bradley, […]. Christensen and G. Rothstein, J. Invest. Dermatology 78, 206-209 (1982). The wet weight of the ear biopsy punches is a measure of the ear edema and the level of MPO activity in the ear punches is an indicator of neutrophil infiltration. The data are expressed as percent inhibition of drug-[…] relative to the control group.

[3] = tested on: croton oil-induced mouse ear edema; assay: Croton Oil Mouse Ear Edema Test; format: in vivo, male CD-1 mice; settings: 1 mg topical, coapplied with croton oil, ear punch weight at 6 hours
Experimental: The croton oil-induced mouse ear edema test, a model of irritant-induced contact dermatitis, has been used for evaluation of the PLA2 inhibitors by the topical route of administration. This test was carried out as described in the following references:
The major active ingredient in croton oil is the tumor promoter 12-O-tetradecanoylphorbol-13-acetate (TPA) and the topical application of TPA to mouse skin has been reported to cause an increase in epidermal PGE2 production as well as an increase in epidermal cell membrane PLA2 activity. Indomethacin, an inhibitor of prostaglandin synthesis, prevented the TPA-mediated increase in epidermal PGE2 levels as well as the TPA-mediated induction of epidermal cell ornithine decarboxylase. Furthermore, the application of PGE2 to mouse skin countered the inhibitory effect of indomethacin upon TPA-stimulated cellular proliferation.
Twenty five μl of a 1% croton oil solution [dissolved in a mixture of pyridine/water/diethyl ether at a ratio of 5/20/75 (croton oil vehicle)] are applied to the outer side of the right ear of 3-4 week old male CD-1 mice (8 animals per group). The test compounds are dissolved directly in the 1% croton oil solution at various concentrations and coapplied. Control animals receive 25 μl of croton oil vehicle on the right ear. Biopsy punches are removed at 6 hours from the fight ear of the animals using a 6 mm skin trephine (Roboz, Washington, D.C.) and the wet weight of the ear punches is determined. The weight of the biopsy punches is a measure of ear inflammation, primarily edema. The data are expressed as percent inhibition relative to control groups.
Statistical analysis of the mean edema values of the control versus the treated groups is performed using Student's t-test. The significance of changes from the mean value for vehicle-treated (control) animals in the following Tables is indicated as follows: *p<0.05, **p<0.01, ***p<0.005,ns/not significant.

Compound	inhibition at 10 µM [1]	inhibition in vivo at 1 mg [2]	further results
CCCCCCCCCCCCCCCCCCOc1cc(OCCOc2ccc3ccccc3c2)cc(C(=O)O)c1 [Example 15, 3-[2-(2-Naphthalenyloxy)ethoxy]-5-(octadecyloxy) benzoic acid]	77%	–	–
CCCCCCCCCCCCCCOc1cc(OCCCOc2ccc(OCc3ccccc3)cc2)cc(C(=O)O)c1 [Example 36, 3-[3-[4-(Phenylmethoxy)phenoxy]propoxy]-5-(tetradecyloxy)benzoic acid]	87%	52%	–
CCCCCCCCCCCCCCCCCCOc1cc(OCCCOc2ccc(S(C)(=O)=O)cc2)cc(C(=O)O)c1 [Example 26, 3-[3-[4-(Methylsulfonyl)phenoxy]propoxy]-5-(octadecyloxy)benzoic acid]	86%	42%	–
CCCCCCCCCCOc1cc(OCCCCCCc2cccc(O)c2O)cc(C(=O)OCCN(CC)CC)c1 [Example 71, 3-(Decyloxy)-5-[[6-(2,3-dihydroxyphenyl)hexyl]oxy]benzoic acid 2-(diethylamino)ethyl ester monohydrochloride salt]	–	57%	–
CCCCCCCCCCCCCCOc1cc(OCCCOc2ccc(O)cc2)cc(C(=O)O)c1 [Example 37, 3-[3-(4-Hydroxyphenoxy)propoxy]-5-(tetradecyloxy) benzoic acid]	75%	57%	–
CCCCCCCCCCOc1cc(OCCCCCCc2cccc(O)c2O)cc(C(=O)OCOC(C)=O)c1 [Example 72, 3-(Decyloxy)-5-[[6-(2,3-dihydroxyphenyl)hexyl]oxy]benzoic acid (acetyloxy)methyl ester]	–	–	% Inhib of TPA Mouse Ear Edema (0.1 mg) ([2]; 0.1 mg topical): 52%
O=C(O)c1cc(OCCCOc2ccc(-c3ccccc3)cc2)cc(OCCCOc2ccc(-c3ccccc3)cc2)c1 [Example 6, 3,5-bis[3-(1,1'-Biphenyl-4-yloxy)propoxy]benzoic acid]	–	–	IC50 ([1]; given as 50 % inhibition at the given concentration, 14C-oleate-labelled E. coli substrate, pH 7.3, 37° C., 30 minutes, read-out: % Inhib of HSF-PLA2: 50 (concentration) = IC50 (μM concentration that produces 50% inhibition of PLA2 activity)): 3 µM
CCCCCCCCCCCCCCCCCCOc1cc(OCCCOc2ccc(OCc3ccccc3)cc2)cc(C(=O)O)c1 [Example 30, 3-[[3-(4-Phenylmethoxy)phenoxy]propoxy]-5-(octadecyloxy)benzoic acid]	–	–	% Inhib of Croton Oil Mouse Ear Edema (1 mg) [3]: 62%
O=C(O)c1cc(OCCOc2cccc3ccccc23)cc(OCCOc2cccc3ccccc23)c1 [Example 8A, 3,5-bis[2-(1-naphthalenyloxy)ethoxy]benzoic acid]	67%	–	–
CCCCCCCCCCCCCCCCCCOc1cc(OCCCOc2ccc(O)cc2)cc(C(=O)OC)c1 [Example 34, 3-[3-(4-Hydroxyphenoxy)propoxy]-5-(octadecyloxy) benzoic acid methyl ester]	2%	42%	–
CCCCCCCCCCCCCCCCCCOc1cc(OCCCOc2ccc([S+](C)[O-])cc2)cc(C(=O)O)c1 (stereo not drawn) [Example 24, 3-[3-[4-(Methylsulfinyl)phenoxy]propoxy]-5-(octadecyloxy)benzoic acid]	72%	43%	–
CCCCCCCCCCOc1cc(OCCCOc2ccc(OCc3ccccc3)cc2)cc(C(=O)O)c1 [Example 39, 3-(Decyloxy)-5-[3-[4-(phenylmethoxy)phenoxy]propoxy]benzoic acid]	61%	–	–

Continued, in another order:

inhibition at 10 µM [1]	Compound	inhibition in vivo at 1 mg [2]	further results
79%	CCCCCCCCCCCCCCCCCCOc1ccc(C(=O)O)c(OCCCOc2ccc(O)cc2)c1 [Example 54, 2-[3-(4-Hydroxyphenoxy)propoxy]-4-(octadecyloxy) benzoic acid]	31%	–
79%	CCCCCCCCCCCCCCCCCCOc1ccc(OCCCOc2ccc(OCc3ccccc3)cc2)c(C(=O)O)c1 [Example 49, 5-(Octadecyloxy)-2-[3-[4-(phenylmethoxy)phenoxy]propoxy]benzoic acid]	–	inhibition in vivo at 0.3 mg [2]: 27%
91%	CCCCCCCCCCCCCCCCCCOc1cc(OCCCOc2ccccc2O)cc(C(=O)O)c1 [Example 46, 3-[3-(2-Hydroxyphenoxy)propoxy]-5-(octadecyloxy) benzoic acid]	–	inhibition in vivo at 0.3 mg [2]: 47%
94%	CCCCCCCCCCCCCCCCCCOc1cc(OCCCCCCOc2ccc(O)cc2)cc(C(=O)O)c1 [Example 44]	46%	–
22%	CCCCCCCCCCOc1cc(OCCCCCCc2cccc(O)c2O)cc(C(=O)OC)c1 [Example 66, 3-(Decyloxy)-5-[[6-(2,3-dihydroxyphenyl)hexyl]oxy]benzoic acid methyl ester]	–	inhibition in vivo at 0.3 mg [2]: 55%
55%	CCCCCCCCCCCCCCCCCCOc1ccc(C(=O)O)c(OCCCOc2ccc(OCc3ccccc3)cc2)c1 [Example 53, 4-(Octadecyloxy)-2-[3-[4-(phenylmethoxy)phenoxy]propoxy]benzoic acid]	17%	–
91%	CCCCCCCCCCCCCCCCCCOc1cccc(C(=O)O)c1OCCCOc1ccc(OCc2ccccc2)cc1 [Example 57, 3-(Octadecyloxy)-2-[3-[4-(phenylmethoxy)phenoxy]propoxy]benzoic acid]	62%	–
93%	CCCCCCCCCCCCCCCCCCOc1ccc(OCCCOc2ccc(O)cc2)c(C(=O)O)c1 [Example 50, 2-[3-(4-Hydroxyphenoxy)propoxy]-5-(octadecyloxy) benzoic acid]	45%	–
54%	O=C(O)c1cc(OCCCOc2ccc(OCc3ccccc3)cc2)cc(OCCCOc2ccc(OCc3ccccc3)cc2)c1 [Example 41, 3,5-bis[3-[4-(Phenylmethoxy)phenoxy]propoxy]benzoic acid]	54%	–
5%	O=C(O)c1cc(OCCCOc2ccc(O)cc2)cc(OCCCOc2ccc(O)cc2)c1 [Example 42, 3,5-bis[3-(4-Hydroxyphenoxy)propoxy]benzoic acid]	43%	–
17%	CCCCCCCCCCCCCCOc1cc(OCCCCCCc2cccc(O)c2O)cc(C(=O)OC)c1 [Example 61, 3-[[6-(2,3-Dihydroxyphenyl)hexyl]oxy]-5-(tetradecyloxy) benzoic acid methyl ester]	44%	–
